Read-outs that look alike come from different tables or passages of the source.
Tests used:
Test in all cases: cells
[1] = test system: L929sAhFas; design: high-content necroptosis screen, percentage PI-positive nuclei as percent of DMSO plus stimulus control
Text: To identify novel inhibitors or regulators of necroptosis, 500 small compounds from libraries targeting autophagy, kinases, phosphatases, proteases and redox balance were screened for their ability to block TNF-induced necroptosis in murine L929sAhFas cells. Three conditions were used to induce necroptosis in L929 cells: TNF alone, TNF+TAK1 inhibitor (TAK1i) and TNF+zVAD-fmk, a pan-caspase inhibitor. Inhibition of TAK1 or caspases sensitizes to necroptosis.[13], [32] Necroptosis, measured as the percentage of PI-positive nuclei normalized to the plate-specific DMSO control, was determined for each compound (Supplementary Figure 1A). […] After compound treatment, L929sAhFas (a) or L929 (b) cells were stimulated with mTNF (T), mTNF+Tak1i (TiT) or mTNF+zVAD (zVT) (Supplementary Figure 1A and B). (a) Cell death percentage (% PI-positive nuclei) or cell loss was calculated as percent of control (DMSO+stimulus). […] (b) Cell loss (luminescence-based readout for ATP) was calculated as percent of control (DMSO+stimulus). […] In stimulated conditions, % PI-positive nuclei was determined as % of DMSO control. Data represent mean values±S.E.M. of two independent experiments. Cells were stained with Hoechst and PI and percentage PI-positive nuclei was determined using high-content image analysis (BD pathway Bioimager). (d) L929sAhFas cells were treated with Sorafenib (concentration as indicated) for 24 h. Then, stimulus was removed, 50 cells/condition seeded and colonies counted with crystal violet staining after 10 days incubation. […] Schemes of workflow screening assays in L929 cell lines. (A) Scheme of the workflow of a high-content screening assay on L929sAhFas cells using mTNF (T) and mTNF+Tak1i ((5Z)-7-Oxozeaenol) (TiT) to induce necroptotic cell death. Nec-1 and zVAD-fmk were used as protective and sensitizing benchmarks, respectively, on all plates. (B) Scheme of the workflow of a CellTiter-Glo luminescent cell viability screening assay on L929 cells using mTNF+zVAD (zVT) to induce necroptotic cell death. Supplementary Figure S2. Z’ calculation for cell death screening assays in L929 cells. (A) Z’ calculation for cell death screening assay (Fig. 1A) in mTNF-stimulated L929sAhFas cells. (B) Z’ calculation for cell death screening assay (Fig. 1A) in L929sAhFas cells stimulated with mTNF + Taki.

[2] = test system: L929sAhFas; design: high-content necroptosis screen, percentage PI-positive nuclei as percent of DMSO plus stimulus control; conditions: mTNF-induced cell death, validation screen; read-out: Validation screen IC50 (µM) (TNF)
Text: To identify novel inhibitors or regulators of necroptosis, 500 small compounds from libraries targeting autophagy, kinases, phosphatases, proteases and redox balance were screened for their ability to block TNF-induced necroptosis in murine L929sAhFas cells. Three conditions were used to induce necroptosis in L929 cells: TNF alone, TNF+TAK1 inhibitor (TAK1i) and TNF+zVAD-fmk, a pan-caspase inhibitor. Inhibition of TAK1 or caspases sensitizes to necroptosis.[13], [32] Necroptosis, measured as the percentage of PI-positive nuclei normalized to the plate-specific DMSO control, was determined for each compound (Supplementary Figure 1A). Z’ values for the TNF- and TNF+TAK1i-induced cell death assay were 0.498 and 0.919, respectively (Supplementary Figures 2A and B), indicating good assay performance. Sorafenib was identified as an effective inhibitor of both TNF- and TNF+TAK1i-induced necroptosis (Figure 1a). […] In an independent screening with 437 FDA-approved drugs and TNF+zVAD-fmk as necroptosis trigger in L929 cells (Supplementary Figure 1B), Sorafenib was also shown to be a potent inhibitor (Figure 1b). […] After compound treatment, L929sAhFas (a) or L929 (b) cells were stimulated with mTNF (T), mTNF+Tak1i (TiT) or mTNF+zVAD (zVT) (Supplementary Figure 1A and B). (a) Cell death percentage (% PI-positive nuclei) or cell loss was calculated as percent of control (DMSO+stimulus). Green points marked by the green dotted line represent a selection of kinase inhibitors from the screening on L929sAhFas cells (Supplementary Table 1), that are only slightly protective in the TNF-stimulated condition. (b) Cell loss (luminescence-based readout for ATP) was calculated as percent of control (DMSO+stimulus). […] In stimulated conditions, % PI-positive nuclei was determined as % of DMSO control. Data represent mean values±S.E.M. of two independent experiments. Cells were stained with Hoechst and PI and percentage PI-positive nuclei was determined using high-content image analysis (BD pathway Bioimager). (d) L929sAhFas cells were treated with Sorafenib (concentration as indicated) for 24 h. Then, stimulus was removed, 50 cells/condition seeded and colonies counted with crystal violet staining after 10 days incubation. Quantification was performed using ImageJ. n=2, a representative experiment is shown Legends supplementary figures Supplementary Figure S1. Schemes of workflow screening assays in L929 cell lines. (A) Scheme of the workflow of a high-content screening assay on L929sAhFas cells using mTNF (T) and mTNF+Tak1i ((5Z)-7-Oxozeaenol) (TiT) to induce necroptotic cell death. Nec-1 and zVAD-fmk were used as protective and sensitizing benchmarks, respectively, on all plates. (B) Scheme of the workflow of a CellTiter-Glo luminescent cell viability screening assay on L929 cells using mTNF+zVAD (zVT) to induce necroptotic cell death. Supplementary Figure S2. Z’ calculation for cell death screening assays in L929 cells. (A) Z’ calculation for cell death screening assay (Fig. 1A) in mTNF-stimulated L929sAhFas cells. (B) Z’ calculation for cell death screening assay (Fig. 1A) in L929sAhFas cells stimulated with mTNF + Taki.

[3] = test system: MEF; design: species or system L929sAhFas or MEF; protection from TNF-induced cell death, percentage PI-positive nuclei by high-content imaging; conditions: Mus musculus
Protocol: (c,d) HT-29 and Jurkat FADD−/− cells were pretreated for 1 h with DMSO, Nec-1 or Sorafenib (concentrations as indicated) and stimulated for 6 h with 30 ng/ml hTNF, 1 μM BV6 and 30 μM zVAD (HT-29) or stimulated for 10 h with 100 ng/ml hTNF (Jurkat FADD−/−). (a-d) Data were normalized to DMSO-treated control cells and represent the mean value±S.E.M. of three independent experiments. Toxic concentrations were removed from the analysis. L929sAhFas and MEF cells were stained with Hoechst and PI and percentage PI-positive nuclei was determined using high-content image analysis (BD pathway Bioimager). For HT-29 and Jurkat FADD−/− cells, cell death was determined by PI staining and flow cytometry. […] Cell death in AML cells was determined by PI staining and flow cytometry. […] Smac mimetic BV6[34] instead of TAK1i was used as a sensitizer for testing of mouse embryonic fibroblasts (MEF) and human cell lines. […] Since Sorafenib is used to treat AML,[27] we also included two AML cell lines to investigate whether it alters the sensitivity of these cells to necroptotic stimuli (BV6 in the presence of zVAD-fmk).[34]

[4] = test system: L929sAhFas; design: species or system L929sAhFas or MEF; protection from TNF-induced cell death, percentage PI-positive nuclei by high-content imaging; conditions: mTNF; inhibition of induced cell death
Protocol: Figure 2 Sorafenib inhibits TNF-induced RIPK1-dependent cell death in both murine and human cell lines and rescues AML cells from Smac mimetic-induced necroptosis. […] (c,d) HT-29 and Jurkat FADD−/− cells were pretreated for 1 h with DMSO, Nec-1 or Sorafenib (concentrations as indicated) and stimulated for 6 h with 30 ng/ml hTNF, 1 μM BV6 and 30 μM zVAD (HT-29) or stimulated for 10 h with 100 ng/ml hTNF (Jurkat FADD−/−). (a-d) Data were normalized to DMSO-treated control cells and represent the mean value±S.E.M. of three independent experiments. Toxic concentrations were removed from the analysis. L929sAhFas and MEF cells were stained with Hoechst and PI and percentage PI-positive nuclei was determined using high-content image analysis (BD pathway Bioimager). For HT-29 and Jurkat FADD−/− cells, cell death was determined by PI staining and flow cytometry. […] Cell death in AML cells was determined by PI staining and flow cytometry. Mean and S.D. of three independent experiments performed in triplicate are shown To confirm the inhibition of TNF-induced necroptosis by Sorafenib, we tested a panel of murine (L929sAhFas and MEF) and human cell lines (HT-29, Jurkat FADD^-/-, and two AML cell lines MV4-11 and Molm13). Smac mimetic BV6[34] instead of TAK1i was used as a sensitizer for testing of mouse embryonic fibroblasts (MEF) and human cell lines. […]

[5] = test system: MV4-11; design: species or system Jurkat FADD-/-, HT-29, MV4-11 or Molm13; protection from induced necroptosis, cell death by PI staining and flow cytometry; conditions: Homo sapiens, BV6 + zVAD, inhibition of induced cell death
Protocol: (§1) Figure 2 Sorafenib inhibits TNF-induced RIPK1-dependent cell death in both murine and human cell lines and rescues AML cells from Smac mimetic-induced necroptosis. […] (c,d) HT-29 and Jurkat FADD−/− cells were pretreated for 1 h with DMSO, Nec-1 or Sorafenib (concentrations as indicated) and stimulated for 6 h with 30 ng/ml hTNF, 1 μM BV6 and 30 μM zVAD (HT-29) or stimulated for 10 h with 100 ng/ml hTNF (Jurkat FADD−/−). (a-d) Data were normalized to DMSO-treated control cells and represent the mean value±S.E.M. of three independent experiments. Toxic concentrations were removed from the analysis. L929sAhFas and MEF cells were stained with Hoechst and PI and percentage PI-positive nuclei was determined using high-content image analysis (BD pathway Bioimager). For HT-29 and Jurkat FADD−/− cells, cell death was determined by PI staining and flow cytometry. […] Cell death in AML cells was determined by PI staining and flow cytometry. Mean and S.D. of three independent experiments performed in triplicate are shown Supplementary materials and methods Immunoblotting. After treatments, cells were washed twice with PBS and lysed with Laemmli buffer (2x) directly or with NP-40 lysis buffer (150 mM NaCl, 1% NP-40, 10% glycerol, 10 mM Tris-HCl pH 8) supplemented with EDTA-free protease inhibitor cocktail tablets (Roche Diagnostics, Basel, Switzerland, #11873580001) and phosphatase inhibitor cocktail tablets (Roche Diagnostics, #04906837001). After lysis with NP-40 lysis buffer, lysates were kept 10 minutes on ice and centrifugated in a microcentrifuge (10 min, 13.000 rpm, 4°C). Supernatant was used for SDS-PAGE and immunoblotting. FACS analysis. FACS analysis was used to measure dying HT-29, Jurkat FADD-/- and AML cells. Treated HT-29 cells were harvested, washed with PBS and incubated with Annexin V binding buffer (BD Biosciences, 556454) containing 7-AAD and Annexin V-FITC for 15 min according to the manufacturer’s protocol. FACSCalibur^TM Flow Cytometer (BD Biosciences) and CellQuest Pro software were used to perform experiments and analyze data respectively.

[6] = test system: Molm13; design: species or system Jurkat FADD-/-, HT-29, MV4-11 or Molm13; protection from induced necroptosis, cell death by PI staining and flow cytometry; conditions: Homo sapiens, MOLM-13; BV6 + zVAD; inhibition of induced cell death
Protocol: as §1

[7] = read-out: cell death TNF/Taki (POC)

Compound	activity at 10 µM ([1]; read-out: cell death TNF (POC)) [%]	activity at 10 µM [1, 7] [%]	IC50 [2] [µM]	IC50 ([3]; mTNF + BV6 + zVAD, inhibition of induced cell death) [nM]	IC50 ([3]; mTNF + BV6, inhibition of induced cell death) [nM]	IC50 [4] [nM]	IC50 [5] [nM]	IC50 [6] [nM]
COc1cc2ncc(-c3ccccc3)nc2cc1OC [AG-1296]	77.6	93.6	33.2					
CN1C(=O)NC(Cc2c[nH]c3c(Cl)cccc23)C1=O (centres unmarked) [Nec-1s]				630 ± 250	380 ± 50	240 ± 120	150 ± 10	280 ± 170
CC(C)(C)c1cc(C=C(C#N)C#N)cc(C(C)(C)C)c1O [TYRPHOSTIN 9]	41.8	95.8	4.45					
N#C/C(=C\c1ccc(O)c(O)c1)C(=O)NCc1ccccc1 [AG-490]	74.2	97.3	87.3					

Reference: PMC5520944 (Cell Death & Disease, 2017)
